# According to ChEMBL document CHEMBL1143158, “Tritium radiolabelling of PB28, a potent sigma-2 receptor ligand: pharmacokinetic and pharmacodynamic characterization” (Bioorg Med Chem Lett, 2008):
# pKd, pKi: −log10 of the molar value.
# Key:
# [1] = Displacement of [3H]PB28 from sigma 2 receptor in rat liver membrane; type: cell membranes
# [2] = Displacement of [3H]DTG from sigma 2 receptor in rat liver membrane; type: cell membranes
# [3] = organism: Rattus norvegicus; experiment: Selectivity for rat sigma 2 receptor over rat sigma1 receptor; details: tested as the 3H-labelled form
# [4] = Binding affinity to sigma 2 receptor in rat liver membrane by saturation analysis; type: cell membranes
# [5] = target: Sigma non-opioid intracellular receptor 1 (Rattus norvegicus, UniProt Q9R0C9); experiment: Binding affinity to sigma 1 receptor in rat liver membrane; type: cell membranes
# Sequence of Sigma non-opioid intracellular receptor 1 (Q9R0C9 whole entry): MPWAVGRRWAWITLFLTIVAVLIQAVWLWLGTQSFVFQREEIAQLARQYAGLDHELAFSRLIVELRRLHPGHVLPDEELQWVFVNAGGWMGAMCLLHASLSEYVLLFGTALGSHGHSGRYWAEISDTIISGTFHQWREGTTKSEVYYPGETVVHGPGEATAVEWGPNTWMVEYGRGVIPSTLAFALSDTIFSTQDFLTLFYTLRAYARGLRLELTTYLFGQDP
SMILES,pKi [1],pKi [2],Selectivity ratio [3],pKd [4],pKi [5]
O=C(CCCN1CCC(O)(c2ccc(Cl)cc2)CC1)c1ccc(F)cc1 [HALOPERIDOL],8.23,8.13,–,–,–
COc1cccc2c1CCCC2CCCN1CCN(C2CCCCC2)CC1 (centres undefined),9.24,9.47,40,–,–
[3H]C([3H])([3H])Oc1ccc(C)cc1C(=O)NCCCCN1CCc2cc(OC)c(OC)cc2C1,–,–,–,9.18,–
Cc1ccccc1NC(=N)Nc1ccccc1C [DITOLYLGUANIDINE],7.38,–,–,–,–
[3H]C1CCCCC1([3H])N1CCN(CCCC2CCCc3c(OC)cccc32)CC1 (centres undefined),–,–,–,9.92,7.87
